# Source: patent EP1001810B1, “PHARMACEUTICAL COMPOSITION WITH NEUROTROPHIC-LIKE BIOLOGICAL ACTIVITY” (McGill University, priority 1997, dated 1999)
# Where a SMILES comes first, the peptide text is derived from it. Bridges are numbered along the chain shown (N, C = ends).
# Assays:
# [1] = biological target: TrkA (Homo sapiens, UniProt P04629); conditions: binds TrkA specifically (LeSauteur 1995); read-out: apparent Kd; cited from earlier work
# [2] = system: 4-3.6 cells; assay: Cell survival in SFM challenged with tyrosine kinase inhibitor K252a; assay type: cell-based, rat; conditions: highest concentration tested (500 nM)
# Experimental: 5,000 cells/well in protein-free media (PFHM-II, GIBCO, Toronto, Ontario) containing 0.1% BSA (Crystalline fraction V, Sigma, St. Louis MO) were added to 96 well plates (Falcon, Mississauga, Ontario). The cultures were untreated or supplemented with serial dilutions of neurotrophins (positive control), test mAbs, or mouse IgG (negative control). The survival profile of the cells was quantitated using the MTT colorimetric assay after 48-72 hours. Percent protection was standardized relative to 1 nM NGF concentrations using the MTT optical density (OD 590 nm) and following formula: [(ODtest -ODuntreated )/(OD1nM NGF-ODuntreated )] × 100. [formula] The OD of untreated samples (SFM only) were ~10% of 1 nM NGF control.
# Some survival experiments were also carried out in the presence of various concentrations of the tyrosine kinase inhibitor K252a. The concentrations of K252a used were previously reported.
# Assays were done as described in Table 1 legend. 4-3.6 cell survival in SFM achieved by incubation with the indicated ligands. Optimal ligand concentrations were used as per Table 3 (1 nM NGF, 5 nM 5C3 mAb and 5 nM 5C3 + 0.5 nM MC192 mAbs) . Cells were challenged with various concentrations of K252a and % survival was calculated using 1 nM NGF as 100% standard. K252a inhibits both NGF and mAb-mediated survival in a dose dependent manner and to a similar relative degree.
# TrkA, sequence (P04629 33-796, species assumed): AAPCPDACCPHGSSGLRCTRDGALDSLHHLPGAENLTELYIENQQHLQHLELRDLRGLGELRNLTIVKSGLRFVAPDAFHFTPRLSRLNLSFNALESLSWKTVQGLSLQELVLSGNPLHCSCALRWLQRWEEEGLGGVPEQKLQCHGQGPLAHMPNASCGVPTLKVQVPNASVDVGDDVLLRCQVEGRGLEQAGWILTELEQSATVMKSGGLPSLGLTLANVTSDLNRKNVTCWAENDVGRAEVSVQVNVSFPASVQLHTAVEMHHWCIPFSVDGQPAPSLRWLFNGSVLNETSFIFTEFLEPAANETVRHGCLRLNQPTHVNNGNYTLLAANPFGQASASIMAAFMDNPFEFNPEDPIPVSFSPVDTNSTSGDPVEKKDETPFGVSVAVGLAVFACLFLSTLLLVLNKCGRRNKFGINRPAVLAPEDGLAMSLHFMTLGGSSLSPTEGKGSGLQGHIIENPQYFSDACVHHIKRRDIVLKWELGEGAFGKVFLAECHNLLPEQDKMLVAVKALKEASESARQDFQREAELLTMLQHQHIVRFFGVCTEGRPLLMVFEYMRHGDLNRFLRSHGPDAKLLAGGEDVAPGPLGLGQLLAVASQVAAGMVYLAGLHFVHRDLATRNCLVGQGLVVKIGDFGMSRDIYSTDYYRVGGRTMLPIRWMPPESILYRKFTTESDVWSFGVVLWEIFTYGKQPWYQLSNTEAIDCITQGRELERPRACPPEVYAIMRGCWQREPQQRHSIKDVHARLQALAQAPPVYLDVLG
SMILES,Kd [1],toxicity to 4-3.6 cells [2]
CC(=O)N[C@@H](Cc1ccc(O)cc1)C(=O)N[C@H]1CSSC[C@@H](C(=O)N[C@@H](Cc2ccc(O)cc2)C(=O)O)NC(=O)[C@H](CCC(N)=O)NC(=O)[C@H](CCCCN)NC(=O)[C@H](CCC(=O)O)NC(=O)[C@H](CC(=O)O)NC(=O)[C@H]([C@@H](C)O)NC1=O [C(92-96)] (Ac-YCTDEKQCY-OH; disulfide 2-8),~100 nM,
COC(=O)[C@@]1(O)C[C@H]2O[C@]1(C)n1c3ccccc3c3c4c(c5c6ccccc6n2c5c31)C(=O)NC4 [K252a],,not toxic
